# Measurements published in patent US20060286630A1, “Posh interacting proteins and related methods” (Proteologics, Inc., priority 2003, published 2006).
# Experiments:
# [1] = system: HBV; experiment: Inhibition of HBV production in HepG2.2.15 cells; format: cell-based; conditions: 3 μM, treated every 24 hours for 4 days, FIG. 35 lanes 7 and 8
# Description: HepG2.2.15 cells were plated on 9 cm dishes and allowed to grow in 8% FCS for 5 days up to 70% confluence. After 5 days, cells were washed twice with PBS and re-supplied with fresh DMEM without FCS. In this medium, cells were treated every 24 hours with the depicted solutions (3 μl solution/11 ml medium) for another 4 days (4 treatments total). After 4 days, medium was collected from each plate, viruses were sedimented and analyzed.
# Detection of HBV proteins was performed essentially as described in Paran, N et al (2001) EMBO J 20(16):4443-4453.
# [2] = system: HIV-1; conditions: Cartier et al., 2003, J Biol Chem., 278:35211-9; cited from earlier work
# [3] = system: HIV-1; conditions: H89 50 μM; HeLa SS6 cells transfected with pNLenv-1; VLPs collected twenty minutes after shift from 20° C. to 37° C.
# Description: HeLa SS6 cells were transfected with pNLenv-1PTAP or pNLenv-1ATAA (L-domain mutant). Eighteen hours post-transfection, cells were transferred to 20° C. for two hours in order to inhibit transport of viral particles from the trans-Golgi (TGN) to the plasma membrane (PM). Subsequently, the PKA inhibitor, H89 (50 μM) (Biosource, Cat. No. PHZ1114) or DMSO were added to the cells and dishes were transferred to 37° C. to initiate transport from the TGN to the PM. Reverse transcriptase activity was assayed from virus-like-particles collected from cell supernatant twenty minutes later.
# [4] = system: Bacterially expressed recombinant maltose-binding-protein (MBP)-hPOSH [MBP: P0AEX9]
compound,measurement,setting,value
Oc1c(Br)cc(Cl)cc1/C=N/c1ccccc1Br [CAS number 414908-38-0],HBV production,[1],inhibit HBV production
O=C1C=CC(=O)N1c1ccc(OC(F)(F)C(F)F)c(N2C(=O)C=CC2=O)c1 [CAS number 14567-55-4],HBV production,[1],inhibit HBV production
"O=S(=O)(NCCNCC=Cc1ccc(Br)cc1)c1cccc2cnccc12 [H89, N-[2-((Pbromocinnamyl)amino)ethyl]isoquinolinesulfonamide]",HIV-1 release from cells,[2],able to block HIV-1 release from cells
same,RT activity of virus-like particles collected from cell supernatant,[3],complete inhibition
PKA catalytic subunit (PKAc),"in-vitro phosphorylation of MBP-hPOSH by PKA catalytic subunit, immunoblot",[4],POSH is phosphorylated by PKA
